The values that follow come from publication PMC12608320, “Insecticidal Potential of Aniba canelilla (H.B.K.) Mez Essential Oil Against Aedes aegypti: Larvicidal and Adulticidal Activities, Mechanism of Action, and Formulation Development” (Plants, 2025).

In one data set the test system is Leishmania amazonensis. Set-up: method as in doi:10.1590/S0103-50532009000600011. The settings on record: cited from earlier work.
In the next data set the test system is macrophages. Set-up: method as in doi:10.1590/S0103-50532009000600011. Conditions: cited from earlier work.
Data set [1] addresses acetylcholinesterase from A. aegypti adults homogenate (Aedes aegypti, UniProt Q6A2E2). Nature of the data set: AChE inhibition (Ellman), A. aegypti adult homogenate. The class given is biochemical. The settings on record: for inhibition at 1500 µg/mL: at 1.5 mg∙mL^−1 (1500 µg mL^−1), read-out: Inhibition Rate (%) ± SD. How it is done: (§1) A total of 250 third instar larvae (370.1 mg) and 250 adults (163.8 mg) of A. aegypti, together with 150 adults of D. melanogaster (134.6 mg), were collected. Each group was placed in a separate 50 mL Falcon tube and frozen at −20 °C to arrest metabolic activity. After freezing, 5 mL of ultrapure water were added to each tube, and the contents were mechanically homogenized on ice using an IKA Ultra-Turrax® homogenizer (model T10BS32) at speed setting 4 for 5 min. The resulting homogenates were transferred to centrifuge tubes and spun at 10,000 rpm for 5 min at 4 °C in a refrigerated centrifuge. Supernatants were carefully collected, aliquoted and stored at −20 °C for biochemical analyses performed within 24 h. After preparation, the homogenates contained 50 insects/mL (larvae) and 30 insects/mL (adult Aedes aegypti and Drosophila melanogaster). These preparations were subsequently used for acetylcholinesterase inhibition activity, total-protein quantification by the BCA method, and calculation of specific catalytic units per individual.
(§2) Percentage inhibition of AChE was determined by the standard Ellman colorimetric method, with minor adaptations. […] After a 10 min incubation at 30 °C, 20 µL of DTNB (3.0 mM) and 20 µL of acetylthiocholine iodide (10.0 mM) were added. Plates were then incubated for a further 30 min at 30 °C, and end-point absorbance was read at 405 nm and pathlength 0.62 cm on a SpectraMax® 190 microplate reader (Molecular Devices^TM, SoftMax® Pro 5; serial no. SMP500-11007-TIQG).
(Ellman's reagent forms a yellow product with free thiols.)

Data set [2] has as its target T1, Acetylcholinesterase (AChE) from Electrophorus electricus (Electrophorus electricus, UniProt O42275).
T1 construct: purchased C3389-2KU
Nature of the data set: AChE inhibition (Ellman), commercial enzyme. Type of data set: biochemical. Conditions: for IC50: commercial enzyme 0.15 U mL^−1. The method, then:
as §2

Data set [3] concerns the target acetylcholinesterase from A. aegypti larvae homogenate (Aedes aegypti, UniProt Q6A2E2). Nature of the data set: AChE inhibition (Ellman), A. aegypti L3 larvae homogenate. The class given is biochemical. Conditions: for inhibition at 1500 µg/mL: at 1.5 mg∙mL^−1 (1500 µg mL^−1), read-out: Inhibition Rate (%) ± SD. How it is done:
as §1, §2

In data set [4] the target is T2, acetylcholinesterase from D. melanogaster adults homogenate (Drosophila melanogaster, UniProt P07140).
T2 construct: from tissue; host or cells: whole-body homogenate supernatant of adult D. melanogaster (laboratory colony)
Nature of the data set: AChE inhibition (Ellman), D. melanogaster adult homogenate. Conditions: for inhibition at 1500 µg/mL: at 1.5 mg∙mL^−1 (1500 µg mL^−1), read-out: Inhibition Rate (%) ± SD. Type of data set: biochemical. How it is done:
as §1, §2

Another data set concerns Trypanosoma evansi. Set-up: method as in PMID 27988226. The settings on record: at 0.5–2.0%; cited from earlier work.
On the set-up of data set [5]: method as in PMID 20406629. Conditions: Wistar rats, 5–10 mg/kg; cited from earlier work.
For a further data set, the system named is Aedes aegypti females. In words: Adulticidal bottle bioassay (WHO/CDC) against Aedes aegypti females. Type of data set: in vivo. The settings on record: preliminary tests. The method, then:
A. aegypti colony was maintained at 26 ± 1 °C, 80 ± 5% relative humidity, and a 12 h light–dark cycle. […] Glass bottles (295 mL) were coated with 1 mL of essential oil solution in analytical-grade acetone. Bottles were left open for 10 min to allow complete solvent evaporation, then acclimated for 1 h with the cap removed. Each bottle received 15–25 unfed adult female A. aegypti and was exposed to 200–50 ppm of the test compound. Deltamethrin (K-Othrine®) at 10 ppm served as the positive control, and acetone-treated bottles as the negative control. Assays were conducted in quadruplicate, with mortality recorded at 15 min intervals over 90 min of continuous exposure. After 90 min, mosquitoes were gently transferred to 500 mL cylindrical paper containers covered with nylon mesh and kept under colony conditions (26 °C, 80% RH, 12 h photoperiod) for knockdown assessment 24 h post-exposure.

In another data set the test system is Aedes aegypti larvae. Nature of the data set: Larvicidal activity against Aedes aegypti third instar larvae. Conditions: for LC50 ± SEM (LCL-UCL): L3 larvae. The method, then: Eggs of the Rockefeller strain of Aedes aegypti were hatched in filtered water, and larvae were reared under controlled conditions (28 ± 1 °C; 12 h photoperiod) until reaching the third instar (L3). […] Each test condition, including controls, was run in quadruplicate. […] Formulations (PEOANIB, PNFTANE, PNFTENE) were applied with the same protocol used for DMSO-dissolved samples, keeping the final solvent concentration at 1% (v/v) of the total water volume.
Negative controls contained either DMSO (200 µL) alone or blank nanomicelles (NBr) at a volume matching the highest concentration tested, whereas the positive control comprised temephos at 1 µg mL^−1. After 14 days of preparation of the formulation, an activity confirmation test was performed at fixed concentrations of PNFTANE (70 ppm) and PNFTENE (5 ppm) formulations. The assays were performed in quadruplicate.

A further data set relates to Artemia salina nauplii. Nature of the data set: Toxicity test on Artemia salina nauplii (non-target). The class given is in vivo. The settings on record: 24 h, metanauplii. The method, then:
Toxicity assays with Artemia salina followed the procedure of Meyer and collaborators with adaptations like those of [86, 107]. For cyst hatching, 25 mg of eggs were placed in a cuboid-glass vessel containing 600 mL of artificial seawater (38 g L^−1 in distilled water) and incubated at 28–30 °C under continuous illumination from a 40 W incandescent lamp. After 24 h, the nauplii (first larval stage) were transferred to fresh saline and reared for an additional 24 h under the same conditions to obtain metanauplii (second larval stage), which were used in the bioassays. Ten metanauplii were exposed to 10 mL of saline containing the test samples dissolved in DMSO. […] After dosing, organisms were maintained at 28–30 °C under artificial light for 24 h. Mortality defined as immobility or sinking to the bottom was recorded, and LC50 values were calculated for each sample. All experiments were performed in triplicate with independent replicates under identical conditions to ensure reproducibility.

In a further data set the test system is Artemia salina. The settings on record: cited from earlier work.
The subject of the next data set is A. aegypti. Conditions: cited from earlier work.

As usually defined, the IC50 is the concentration that inhibits the measured activity by half. By inhibition is commonly meant the change of the read-out against control, counted positive when it falls. A word on the LC50: it is the concentration that kills 50% of the test population. The term mortality denotes the percentage killed.

≈ marks a conversion by molar mass, not a printed value. Where “and” joins values, the source holds several entries; their conditions need not be identical. Equal entries are not always repeated.

As for `O=[N+]([O-])CCc1ccccc1` [NFTANE, 1-Nitro-2-phenylethane], the IC50 with Leishmania amazonensis is 40 µg/mL (≈ 265 µM); in data set [2] it was 1250 µM. Further, the “fold less cytotoxic to macrophages than pentamidine” value with macrophages was “approximately 2.5 fold”. The inhibition at 1500 µg/mL in data set [1], in data set [3] and in [4] was at most 10% throughout. The “Slope ± SEM” value in data set [2] turned out to be 1.175 ± 0.066. The “activity against Trypanosoma evansi” value with Trypanosoma evansi is “shows activity”. In data set [5], the “effect on blood pressure” value is listed as “significantly lowering blood pressure”. For the same compound, in the data set on Aedes aegypti females, the “adulticidal effects compared with EOANIB” value was “comparable adulticidal effects to EOANIB”. The “LC50 ± SEM (LCL-UCL)” value in the data set with Aedes aegypti larvae (24 h exposure) is 84.8 ppm and 85.8 ppm; in the data set with Aedes aegypti larvae (48 h exposure) it was 83.6 ppm. In addition, in the data set on Aedes aegypti larvae (exposure time not given), the LC50 is given as 84–87 ppm.
On to `O=[N+]([O-])C=Cc1ccccc1` [NFTENE, 1-Nitro-2-phenylethene], for which the “Slope ± SEM” value in [1] was found to be 0.86 ± 0.07; in data set [2], 1.283 ± 0.094; in data set [3] it was 0.72 ± 0.06; in [4], 2.02 ± 0.20. Further, the figures for the inhibition at 100 µg/mL in [1] (100 μg.mL^−1) and in data set [3] (100 μg.mL^−1) were 4.5% and 23.1%, respectively. In addition, the inhibition at 250 µg/mL is 11.2% in data set [1] (250 μg.mL^−1) and 26.8% in [3] (250 μg.mL^−1). Besides, the values for the inhibition at 500 µg/mL in data set [1] (500 μg.mL^−1), in data set [3] (500 μg.mL^−1) and in data set [4] (500 μg.mL^−1) were 15.1%, 38% and 2.4%, respectively. For the same compound, the inhibition at 1000 µg/mL in data set [1] (1000 μg.mL^−1) amounted to 26.6%; in data set [3] (1000 μg.mL^−1), 57.1%; in data set [4] (1000 μg.mL^−1), 9.1%. In addition, the inhibition at 1500 µg/mL in [1] amounted to 34 ± 2.18%; in data set [3], 71.8 ± 2.21%; in data set [4], 18.4 ± 2.11%. In addition, the “LC50 ± SEM (CI)” value with Artemia salina nauplii amounted to 1.9 ppm. Also, the results for the IC50 in data set [2] and in data set [4] were 998 µM and 21000 µM, respectively. Further, the inhibition at 25 µg/mL in data set [3] (25 μg.mL^−1) worked out at 15.5%. In addition, in data set [3] (50 μg.mL^−1), the inhibition at 50 µg/mL came to 14.9%. For the same compound, the adult mortality entry in the data set with Aedes aegypti females (100 ppm) is on record as “no adult mortality”. Also, the “LC50 ± SEM (LCL-UCL)” value with Aedes aegypti larvae (24 h exposure) is 10.9 ppm; in the data set on Aedes aegypti larvae (48 h exposure), 7.7 ppm.
As for `COP(=S)(OC)Oc1ccc(Sc2ccc(OP(=S)(OC)OC)cc2)cc1` [Temephos, reference compound], the mortality at 1 ppm with Aedes aegypti larvae (Aedes aegypti, read-out: larval mortality) was 100%.
For the compound `CCOP(=S)(OCC)Oc1nc(Cl)c(Cl)cc1Cl` [chlorpyrifos], in the data set with Artemia salina, the LC50 is 0.38 ppm.
`N=C(N)c1ccc(OCCCCCOc2ccc(C(=N)N)cc2)cc1` [pentamidine, reference compound]: the IC50 with Leishmania amazonensis is 4.8 µg/mL (≈ 14.1 µM).
As for `CCCSP(=O)(OCC)Oc1ccc(Br)cc1Cl` (centres unmarked) [profenofos], in the data set with Artemia salina, the LC50 is on record as 7.71 ppm.
For the compound `CC1=CCC2CC1C2(C)C` (stereo not drawn) [α-pinene], the “LC50 (adulticidal activity of minor constituents)” value in the data set on A. aegypti is reported as 17.3–56.5 ppm.
In the case of `C=C1CC/C=C(\C)CC[C@@H]2[C@@H]1CC2(C)C` [β-caryophyllene], the “LC50 (adulticidal activity of minor constituents)” value in the data set on A. aegypti is given as 26 ppm.
